Some test systems named below: HOP-18 NSCLC; A549 NSCLC; RPMI-8226 leukemia; XF 498 CNS; DMS 273 small cell lung; P388 leukemia; SK-OV-3 ovarian; SN12K1 renal; BT-549 breast; MDA-MB-231 breast; MDA-N; M14 melanoma; A498 renal; M19-MEL melanoma.
What all share (test): NCI tumour cell line growth inhibition, 48 h

Results on seven compounds are retold here after PubChem BioAssay (NCI).

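Compound exposure: 48 hours, 5 concentrations, 96-well plates. GI50 is the concentration that inhibits growth by half. TGI is the concentration that stops growth completely.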

For the compound `Nc1ccn(C2OC(CO)C(O)C2O)c(=O)c1` (stereo unspecified), the TGI in the experiment with HOP-18 NSCLC was more than 625 µM; in the experiment with A549 NSCLC it was more than 625 µM; in the experiment with RPMI-8226 leukemia, 524 µM; with XF 498 CNS, less than 0.0625 µM; in the experiment on DMS 273 small cell lung, more than 625 µM; in the experiment on P388 leukemia, more than 625 µM. Besides, the TGI with SK-OV-3 ovarian and in the experiment with SN12K1 renal was more than 625 µM throughout.

Consider `CN1C2CCC1CC(C)(O)C2` (stereo unspecified), for which the TGI in the experiment on BT-549 breast, with RPMI-8226 leukemia, in the experiment with MDA-MB-231 breast, in the experiment with MDA-N and in the experiment on M14 melanoma was more than 100 µM in each case.

Turning to `COc1ccc(-c2nn(-c3ccc(NC(=O)Nc4cc(C(F)(F)F)cc(C(F)(F)F)c4)cc3)cc2-c2ccncc2)cc1Cl`, the GI50 was 2.84 µM in the experiment on A549 NSCLC; 1.23 µM with RPMI-8226 leukemia; 1.81 µM with MDA-MB-231 breast; 1.91 µM in the experiment with M14 melanoma; 1.31 µM with A498 renal. Moreover, the TGI in the experiment on A549 NSCLC is more than 100 µM; in the experiment on RPMI-8226 leukemia it was 3.58 µM; in the experiment with MDA-MB-231 breast, 4.44 µM; in the experiment on M14 melanoma, 4.4 µM; with A498 renal it was 5.32 µM.

As for `COc1ccc(N2C(=O)CSC2c2c[nH]c3ccccc23)cc1` (stereo unspecified), the TGI in the experiment on BT-549 breast, in the experiment with MDA-MB-231 breast, in the experiment with MDA-N, in the experiment with SK-OV-3 ovarian and in the experiment on M14 melanoma was more than 100 µM each time.

Turning to `O=C(N/N=C/c1cc(Br)cc(Br)c1[O-])c1ccccc1O.O=C(N/N=C/c1cc(Br)cc(Br)c1[O-])c1ccccc1O.[Cu+2]`, the TGI in the experiment with SK-OV-3 ovarian turned out to be 1.12 µM; in the experiment with M14 melanoma it was 1.05 µM.

As to `COc1ccc(C2COc3cc(O)c(O)cc3C2)cc1` (stereo unspecified), the TGI with HOP-18 NSCLC was 110 µM; with A549 NSCLC it was 188 µM; in the experiment on RPMI-8226 leukemia, 25.2 µM; in the experiment with DMS 273 small cell lung, 160 µM; with M19-MEL melanoma, 86.6 µM; in the experiment on P388 leukemia, 18.7 µM. The TGI with SK-OV-3 ovarian came out at 163 µM; in the experiment on SN12K1 renal it was 98.9 µM; in the experiment on A498 renal, 17.4 µM.

In the case of `O=c1c(C(c2ccc(Cl)cc2)c2c(O)c3ccccc3n(-c3ccccc3)c2=O)c(O)c2ccccc2n1-c1ccccc1`, the TGI with HOP-18 NSCLC is more than 100 µM; in the experiment on A549 NSCLC it was more than 100 µM; with RPMI-8226 leukemia it was 69.4 µM; in the experiment with XF 498 CNS it was 69.4 µM; in the experiment with DMS 273 small cell lung, more than 100 µM; in the experiment on M19-MEL melanoma it was more than 100 µM. The compound also gave a TGI with SK-OV-3 ovarian of more than 100 µM.
